The values that follow come from the NIST ThermoML archive (doi:10.1016/j.jct.2016.08.026).

Broadly, the mass density is mass per unit of volume.

SMILES strings stand for the structures. Numbers after ± are expanded uncertainties.

The conditions of data set [1]: 101 kPa, Liquid, Pycnometric method.
The nature of data set [2]: xn = mol fraction of the nth substance listed. Conditions: 101 kPa, Liquid, Pycnometric method, x1 = 1.

In the case of `CC#N` [acetonitrile], the mass density in data set [1] (293.15 K) is 782.12 ± 1 kg/m3; in data set [1] (298.15 K), 776.82 ± 1 kg/m3; in data set [1] (303.15 K) it was 771.52 ± 1 kg/m3; in data set [1] (308.15 K), 766.21 ± 1 kg/m3; in data set [1] (313.15 K), 760.9 ± 1 kg/m3; in data set [1] (318.15 K), 755.59 ± 1 kg/m3.
Turning to `CC#N` [acetonitrile] + C=CC(=O)OC, the mass density came to 782.12 ± 1 kg/m3 in data set [2] (293.15 K); 776.82 ± 1 kg/m3 in data set [2] (298.15 K); 771.52 ± 1 kg/m3 in data set [2] (303.15 K); 766.21 ± 1 kg/m3 in data set [2] (308.15 K); 760.9 ± 1 kg/m3 in data set [2] (313.15 K); 755.59 ± 1 kg/m3 in data set [2] (318.15 K).
For the molecule `CC#N` [acetonitrile] + C=CC(=O)OC(C)(C)C, the mass density in data set [2] (293.15 K) turned out to be 782.12 ± 1 kg/m3; in data set [2] (298.15 K) it was 776.82 ± 1 kg/m3; in data set [2] (303.15 K), 771.52 ± 1 kg/m3; in data set [2] (308.15 K), 766.21 ± 1 kg/m3; in data set [2] (313.15 K) it was 760.9 ± 1 kg/m3; in data set [2] (318.15 K), 755.59 ± 1 kg/m3.
Regarding `CC#N` [acetonitrile] + C=CC(=O)OCC, the mass density in data set [2] (293.15 K) was determined as 782.12 ± 1 kg/m3; in data set [2] (298.15 K), 776.82 ± 1 kg/m3; in data set [2] (303.15 K), 771.52 ± 1 kg/m3; in data set [2] (308.15 K), 766.21 ± 1 kg/m3; in data set [2] (313.15 K), 760.9 ± 1 kg/m3; in data set [2] (318.15 K), 755.59 ± 1 kg/m3.
For `CC#N` [acetonitrile] + C=CC(=O)OCCCC, the mass density in data set [2] (293.15 K) is given as 782.12 ± 1 kg/m3; in data set [2] (298.15 K), 776.82 ± 1 kg/m3; in data set [2] (303.15 K), 771.52 ± 1 kg/m3; in data set [2] (308.15 K), 766.21 ± 1 kg/m3; in data set [2] (313.15 K), 760.9 ± 1 kg/m3; in data set [2] (318.15 K) it was 755.59 ± 1 kg/m3.
As to `C=CC(=O)OC(C)(C)C` [tert-butyl acrylate], the mass density in data set [1] (293.15 K) was found to be 884.13 ± 1 kg/m3; in data set [1] (298.15 K), 879.66 ± 1 kg/m3; in data set [1] (303.15 K) it was 875.2 ± 1 kg/m3; in data set [1] (308.15 K), 870.74 ± 1 kg/m3; in data set [1] (313.15 K), 866.28 ± 1 kg/m3; in data set [1] (318.15 K), 861.82 ± 1 kg/m3.
